Source: patent US20110015274A1, “FORM OF AN […] DERIVATIVE” (priority 2009, published 2011)
Several values for one entry are separate records, joined by “and”; a condition that tells them apart may be missing. Equal values may be shown once. Read-outs that look alike come from different tables or passages of the source.

Assays:
[1] = by volume, wet dispersion in Isopar G, sonicated 3 minutes; mesylate
Text: The particle size parameters measured in the present disclosure have been obtained by means of laser light diffraction technique, and specifically by means of a Malvern Mastersizer S particle size analyzer having characteristics as set out below. Namely, the laser source used was a 2 milliwatt Helium/neon laser (633 nm wavelength); the detection system was a Fourier Transform lens system; the sample was run using a […]; the sample unit was a sample unit for wet measurement, and particularly was a MS1-Small volume Sample Dispersion Unit stirred cell. The wet dispersion was prepared by using a solution of 1.5 g of Soybean Lecithin in 200 mL of Isopar G as a sample dispersant, and the dispersion was controlled by stirring the unit cell. […] The characterization parameters (volume distributions) were measured for at least six times for each sample, and the result is a mean of said measured values for each sample.
A 300RF mm lens and a beam length of 2.4 mm were used. Preparation of sample dispersant: 1.5 g of Soybean Lecithin was added to 200 mL of Isopar G, and the mixture was mixed gently until Lecithin dissolved. […] The paste was delivered to the previously background and corrected measuring cell filled with dispersant (Isopar G) until the obscuration reached the desired level. The suspension was sonicated for 3 minutes. Volume distributions were obtained for at least six measures. After completing the measurements, the sample cell was emptied and cleaned, refilled with suspending medium, and the sampling procedure repeated again. For characterization, the values of D10, D50 and D90 (by volume) were specifically listed, each one being the mean of the measured values available for each characterization parameter.
The notation Dx [also written as D(v, 0.X)] means that X % of the particles have a diameter less than a specified diameter D. Thus a D90 [or D(v, 0.9)] of 100 μm means that 90% of the particles have a diameter less than 100 μm.

[2] = N2 at 77 K, relative pressures 0.05 to 0.3; mesylate
Text: The specific surface area values disclosed in the present disclosure have been obtained by means of a specific surface area analysis technique based on the BET (Brunauer, Emmett and Teller) theory, which is a well-accepted theory known in the art for the calculation of surface areas of solids by means of measuring their physical adsorption of gas molecules (See S. Brunauer, P. H. Emmett and E. Teller, J. Am. Chem. Soc., 1938, 60, 309). In particular, the specific surface area values measured have been calculated from the BET surface area plot obtained by measuring the quantity of nitrogen gas molecules adsorbed by a weighted amount of solid at different relative pressures (P/P0) within the range 0.05 to 0.3, at 77K. Precisely, the measurement of the adsorption of gas molecules was carried out by means of a Micromeritics™ Gemini V equipment having the characteristics as set out below. Namely, the gas used for adsorption measure was nitrogen gas. […] The sample for analysis was degassed (at 30° C. for 10 minutes and at 130° C. for 90 minutes). The determination of the adsorption of nitrogen was measured at 77K and for twelve relative pressures sufficiently dispersed within in the range of 0.05 to 0.3 (i.e. twelve absolute pressures in the range of 38.860001 mmHg to 230.464996 mmHg relative to a saturated pressure of 765.705017 mmHg).
The sample for analysis was degassed at 30° C. for 10 minutes and at 130° C. for 90 minutes.

[3] = Method: The substantial absence of agglomeration in accordance with the present invention can be determined by visual inspection and/or by optical microscopy. […] That is, the smallest agglomerate to be observed by particle size analysis would be the agglomerate resultant of the union of a single crystal with another which would lead to an increase of 100% in the D90 and/or the D50 measured value.
The chromatographic separation was carried out in a Chiralpak IC, 5 μm, 250×4.6 mm I.D column; at 30° C.
The mobile phase was prepared by mixing 950 mL of n-hexane, 40 mL of 2-propanol, 10 mL of ethanol, 4 mL of trifluoroacetic acid and 1 mL of diethylamine. The mixture was mixed thoroughly.
The chromatograph was equipped with a 265 nm detector, and the flow rate was 1.4 mL per minute.
The test samples were prepared by dissolving the appropriate amount of sample to obtain 10 mg per mL in diluent. The diluent was prepared by mixing 89 mL of mobile phase, 10 mL of 2-propanol and 1 mL of diethylamine. The injection volume was 5 μL.
Samples were taken and analyzed after 1, 2, 3 and 6 months storage.

[4] = 25° C.±1° C., 80%±2% relative humidity, 24 hours
Method: The percentage increase in mass was calculated based on the hygroscopicity method described in the European Pharmacopoeia 5.0 (general chapter 5.11).

[5] = WO 2008/019871 Example 8, prepared in isopropanol; cited from earlier work
[6] = cited from earlier work
[7] = heating at 80° C. for 72, 96 or 144 hours, and refluxing in isopropanol for 30 hours; cited from earlier work
[8] = material with D90 of less than 6 μm stored at 25±2° C., 65±5% relative humidity, 5 days; cited from earlier work
[9] = cited from earlier work; remark: listed apart in the source

Structure (SMILES)	Particle size D(v, 0.1) [1] [μm]	Particle size D(v, 0.5) [1] [μm]	Particle size D(v, 0.9) [1]	Specific Surface Area (BET) [2] [m^2/g]	other results
C#CCN[C@@H]1CCc2ccccc21.CS(=O)(=O)O [Example 4, R-(+)-N-propargyl-1-aminoindan mesylate]	54.9	208.5	464.0 μm	0.1434	Total impurities (HPLC) ([3]; 1 month, 40±2° C., 75%±5% relative humidity): <0.05%; Total impurities (HPLC) ([3]; 2 months, 40±2° C., 75%±5% relative humidity): <0.05%; Total impurities (HPLC) ([3]; 3 months, 40±2° C., 75%±5% relative humidity): <0.05%; Total impurities (HPLC) ([3]; 6 months, 40±2° C., 75%±5% relative humidity): <0.05%; Total impurities (HPLC) ([3]; Initial sample): <0.05%; % Mass increase [4]: 0.01%; Hygroscopicity (in words) [4]: not hygroscopic material
C#CCN[C@@H]1CCc2ccccc21.CS(=O)(=O)O [Example 2, R-(+)-N-propargyl-1-aminoindan mesylate]	37.0	118.7	246.7 μm		
C#CCN[C@@H]1CCc2ccccc21.CS(=O)(=O)O [Reference Example 1, R-(+)-N-propargyl-1-aminoindan mesylate]	17.4	62.6	118.0 μm	0.3216	
C#CCN[C@@H]1CCc2ccccc21.CS(=O)(=O)O [rasagiline mesylate, R-(+)-N-propargyl-1-aminoindan mesylate]					Particle size d(0.1) [5]: 13.6±0.05 μm; Particle size d(0.5) [5]: 40.5±0.25 μm; Particle size d(0.9) [5]: 85.7±0.89 μm; Particles below 250 μm [5]: 100%; Behaviour of the powder on storage ([6]; 4 weeks at 40° C., 75% relative humidity in an opened container): transforms into a sticky powder; Behaviour of the powder on storage ([6]; 4 weeks at 60° C. in a closed glass bottle): agglomerates; Change in water content on storage ([6]; 4 weeks storage, WO 2008/019871 Example 5): no substantial changes; Appearance [7]: kept an appearance of white powder; D90 after storage [8]: approximately 151 μm; d(0.9) or D90 after milling ([9]; after milling): 156-189 μm; d(0.9) or D90 before milling ([9]; samples containing large, irregular particles, initial): 386-598 μm
C#CCN[C@@H]1CCc2ccccc21.CS(=O)(=O)O [Reference Example 2, R-(+)-N-propargyl-1-aminoindan mesylate]	14.7	60.2	143.6 μm	0.2490	
C#CCN[C@@H]1CCc2ccccc21.CS(=O)(=O)O [Reference Example 3, R-(+)-N-propargyl-1-aminoindan mesylate]	127.5	311.2	611 μm and 611.1 μm	0.0274	
C#CCN[C@@H]1CCc2ccccc21.CS(=O)(=O)O [Example 3, R-(+)-N-propargyl-1-aminoindan mesylate]	37.4	159.6	404.2 μm	0.0474	
C#CCN[C@@H]1CCc2ccccc21.CS(=O)(=O)O [Example 1, R-(+)-N-propargyl-1-aminoindan mesylate]	30.6	89.0	163.6 μm	0.0722	
